Measurements reported in patent publication EP0240874A1, “Highly resorbable preparation of hymecromone, and method for its production” (Dolorgiet GmbH & Co. KG, priority 1986, dated 1987).

Legend:
[1] = cold and warm water; from Beilsteins Handbuch; cited from earlier work
Solubility in water = assay type: physicochemical; details: general statement, no test described

| SMILES | Löslichkeit in kaltem und warmen Wasser [1] | Löslichkeit in Wasser (Solubility in water) |
| --- | --- | --- |
| Cc1cc(=O)oc2cc(O)ccc12 [Hymecromon, 7-Hydroxy-4-methyl-cumarin] | nahezu unlöslich | – |
| Cc1cc(=O)oc2cc(O)ccc12 [Natriumsalz] | – | gut löslich |
